Tests used:
O-acyltransferase = O-acyltransferase (Oryctolagus cuniculus, UniProt G1SFD9); assay: In vitro Acyl coenzyme A:cholesterol acyltransferase inhibition by incubation with [14C]oleolyl-CoA and intestinal microsomes isolated from cholesterol-fed rabbits.; design: species or system Intestine
Rattus norvegicus = organism: Rattus norvegicus; assay: Cholesterol lowering activity was assessed in rats expressed as percent change in total cholesterol (TC) in cholic acid-cholesterol-peanut oil fed rats; format: functional

O-acyltransferase, sequence (G1SFD9 1-524): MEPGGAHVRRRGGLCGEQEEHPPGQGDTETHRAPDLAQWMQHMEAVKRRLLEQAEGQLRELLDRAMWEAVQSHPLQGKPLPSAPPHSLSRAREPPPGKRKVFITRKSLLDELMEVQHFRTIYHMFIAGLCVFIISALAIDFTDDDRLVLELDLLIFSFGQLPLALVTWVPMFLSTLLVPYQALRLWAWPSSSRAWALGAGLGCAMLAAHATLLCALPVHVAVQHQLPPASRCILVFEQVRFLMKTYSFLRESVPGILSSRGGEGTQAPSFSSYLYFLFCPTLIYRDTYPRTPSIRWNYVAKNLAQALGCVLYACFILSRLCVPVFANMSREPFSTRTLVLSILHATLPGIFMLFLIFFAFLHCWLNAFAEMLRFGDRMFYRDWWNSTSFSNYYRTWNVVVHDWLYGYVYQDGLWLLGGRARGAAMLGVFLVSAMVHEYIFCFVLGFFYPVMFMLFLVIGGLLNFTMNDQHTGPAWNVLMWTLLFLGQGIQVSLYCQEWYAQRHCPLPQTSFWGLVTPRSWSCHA

Row | IC50 (O-acyltransferase) [µM] | SMILES | Change in TC (Rattus norvegicus) [%]
1 | 5 | CCCCCCCCCCC1=NN(c2c(C)cccc2C)C(=O)C1 | –
2 | 5 | CCCCCCCC/C=C\CCCCCCCC1=NN(c2ccc(F)cc2F)C(=O)C1 | –
3 | 5 | CCCCCCCC/C=C\CCCCCCCC1=NN(c2ccc([N+](=O)[O-])cc2[N+](=O)[O-])C(=O)C1 | -26
4 | 22.9 | CCCCCCCC/C=C\CCCCCCCC1=NN(c2c(Cl)cccc2Cl)C(=O)C1 | -18
5 | 9.9 | CCCCCCCC/C=C\CCCCCCCC1=NN(c2ccc(Cl)cc2Cl)C(=O)C1 | –
6 | 3.9 | CC(C)c1cccc(C(C)C)c1N1CNC(C(c2ccccc2)c2ccccc2)C1=O (stereo unspecified) | –
7 | 1.3 | CC(C)c1cccc(C(C)C)c1N1CN(C(c2ccccc2)c2ccccc2)CC1=O | –
8 | 50.8 | Cc1cccc(C)c1N1N=C(CC(c2ccccc2)c2ccccc2)CC1=O | –
9 | 5.5 | CC(C)c1cccc(C(C)C)c1N1CNC(Cc2ccccc2)C1=O (stereo unspecified) | -9
10 | 5 | CC(C)c1cccc(C(C)C)c1N1CN(CC(c2ccccc2)c2ccccc2)CC1=O | -6
11 | 5 | CCCCCCCC/C=C\CCCCCCCC1=NN(c2ccc(C)cc2C)C(=O)C1 | -26

Source: ChEMBL document CHEMBL1127280, “Imidazolidinones and pyrazolones as novel ACAT inhibitors: Chemistry and biological activity” (Bioorg Med Chem Lett, 1994)
